Counter-ions that a name gives are not always drawn.
Assays:
[1] = system: HT29 RAMS11 overexpressing cells; assay: High-throughput viability assay (resazurin), 119 FDA-approved anticancer drugs, RAMS11 overexpressing cells (Clone1, Clone2); conditions: for Viability Fold Change: 72 h, vs empty vector control; for increase in drug resistance in HT29 RAMS11 overexpressing cells: topoisomerase inhibitors, vs empty vector cells; for increase in cellular viability compared with empty vector control cell line: HT29 RAMS11 overexpressing vs empty vector cells, treated 72 h; for effect of cell viability: HT29 RAMS11 overexpressing cells
[2] = system: LoVo RAMS11 CRISPR KO cells; assay: Individual drug IC50 / cell viability assays in RAMS11 CRISPR KO cells; format: cell-based; conditions: for increase in drug sensitivity: LoVo RAMS11 CRISPR KO vs wild-type treated cells, 0.5 μM doxorubicin or 0.7 μM epirubicin; for effect of cell viability: LoVo RAMS11 CRISPR KO cells
Experimental: The NIH approved oncology library of 119 drugs (AOD6 plate 4825-1 and AOD6 plate 4826) was received from the NIH National Cancer Institute DTP Developmental Therapeutics Program. Drugs were diluted in DMSO to 1 mM and the well assignments were rearranged so drugs were confined to the inner 60 wells of 96-well plates. HT29 RAMS11 overexpressing Clone1 and Clone2 cell lines were seeded at 5000 cells per well in a 96-well plate. The next day serial diluted drug was added to pre-seeded plates in media containing 1% DMSO vehicle, using a Robbins Hydra 96 micro dispenser. Two 96-well plates of cells were used as vehicle controls. The plates were incubated for 3 days. Percent viability was scored by incubating cells for 3 h with resazurin sodium (0.023 mg/mL, Sigma R7017). The reaction was stopped by the addition of SDS (1% final concentration). Fluorescence Ex/Em 540/590 was read in a Biotek Synergy H1 plate reader (Winooski, VT). The fluorescence values for the vehicle plates were averaged and percent viability was determined by the formula: Percent viability=[…]/(average vehicle−average resazurin in media blank)×100. We removed drugs that were undetectable, or out of range, by resazurin assay, leaving 118 drugs to assess in the study (TABLE 3). Values with more than a 1.5-fold change in both RAMS11 Clone1 and Clone2 overexpressing cell lines were used to determine significance. Individual drug IC50 assays were done in a similar manner as described above with CRISPR KO cells. Assays were repeated more than three times.

[3] = system: SW620 cells with silenced RAMS11; assay: Drug IC50 / cell viability assays in cells with transient silencing of RAMS11
TOP2α promoter = assay: Chromatin immunoprecipitation (ChIP) qPCR at TOP2α promoter, LoVo; format: cell-based; conditions: LoVo cells
Experimental: ChIP qPCR assays were conducted by first sonicating five million cells in SDS lysis buffer (1% SDS, 500 mM EDTA, 50 mM Tris-HCl pH 8). […] The next day Dynabeads Protein G (Invitrogen) were added to the antibody lysate mixture and rotated for 1 h. Bead/lysate mixture was then washed once with low salt wash buffer (0.1% SDS, 1% Triton X-100, 2 mM EDTA, 20 mM Tris-HCl pH 8, 150 mM NaCl), then high salt buffer (0.1% SDS, 1% Triton X-100, 2 mM EDTA, 20 mM Tris-HCl pH 8, 500 mM NaCl), lithium chloride wash buffer (0.25 M lithium chloride, 1% NP40, 1% sodium deoxycholate, 1 mM EDTA, 10 mM Tris-HCl pH 8), and finally two washes with Tris-HCl EDTA buffer (10 mM Tris-HCl pH 8, 1 mM EDTA). DNA was eluted by incubating beads for 30 min at room temperature with SDS elution buffer (1% SDS, 0.1 M sodium bicarbonate), followed by 1.25 M NaCl and 2.5 mg/mL RNAse A at 95° for 15 min shaking followed by addition of proteinase K buffer (1 μL 10 mg/mL proteinase K, 5 μL […], 10 μL 1 M Tris pH 7.5) shaking at 60° for 15 min. DNA was then isolated using phenol:chloroform:isoamyl alcohol extraction following the general protocol as mentioned above. […] The % input calculations were determined by comparing CT values from input DNA and ChIP DNA for the TOP2A target promoter region using the following equation: % Input=% of starting input fraction×2^[CT(input)−CT(Chlp)] […]

[4] = OE1 (RAMS11 overexpression clone 1), 0.1 uM drug
[5] = OE1 (RAMS11 overexpression clone 1), 1 uM drug
[6] = OE1 (RAMS11 overexpression clone 1), 10 uM drug
[7] = OE2 (RAMS11 overexpression clone 2), 0.1 uM drug
[8] = OE2 (RAMS11 overexpression clone 2), 1 uM drug
[9] = OE2 (RAMS11 overexpression clone 2), 10 uM drug

| Compound | Viability Fold Change [1, 4] | Viability Fold Change [1, 5] | Viability Fold Change [1, 6] | Viability Fold Change [1, 7] | Viability Fold Change [1, 8] | Viability Fold Change [1, 9] | other results |
| --- | --- | --- | --- | --- | --- | --- | --- |
| CCC1=C[C@@H]2CN(C1)Cc1c([nH]c3ccccc13)[C@@](C(=O)OC)(c1cc3c(cc1OC)N(C)[C@H]1[C@@](O)(C(=O)OC)[C@H](OC(C)=O)[C@]4(CC)C=CCN5CC[C@]31[C@@H]54)C2 [Vinorelbine tartrate] | 0.9568 | 1.194 | 2.913 | 0.9481 | 1.067 | 2.913 |  |
| CS(=O)(=O)c1ccc(C(=O)Nc2ccc(Cl)c(-c3ccccn3)c2)c(Cl)c1 [Vismodegib] | 0.8416 | 0.9134 | 0.9421 | 0.9752 | 0.846 | 0.8976 |  |
| O=C(CCCCCCC(=O)Nc1ccccc1)NO [Vorinostat] | 1.123 | 0.8948 | 1.604 | 1.068 | 1.159 | 1.356 |  |
| O=P(O)(O)C(O)(Cn1ccnc1)P(=O)(O)O [Zoledronic acid] | 0.9494 | 0.9911 | 1.01 | 0.9595 | 1.055 | 1.082 |  |
| COc1cccc2c1C(=O)c1c(O)c3c(c(O)c1C2=O)C[C@@](O)(C(C)=O)C[C@@H]3O[C@H]1C[C@H](N)[C@H](O)[C@H](C)O1 [daunorubicin HCl, reference compound] | 1.103 | 2.258 | 3.761 | 1.084 | 2.098 | 3.726 | increase in drug resistance in HT29 RAMS11 overexpressing cells [1]: at least a two-fold increase in drug resistance |
| COc1cccc2c1C(=O)c1c(O)c3c(c(O)c1C2=O)C[C@@](O)(C(=O)CO)C[C@@H]3O[C@H]1C[C@H](N)[C@H](O)[C@H](C)O1 [doxorubicin HCl, reference compound] | 1.113 | 1.973 | 2.438 | 1.165 | 1.939 | 2.403 | increase in drug sensitivity [2]: 1.5 fold; increase in drug resistance in HT29 RAMS11 overexpressing cells [1]: at least a two-fold increase in drug resistance |
| COc1cccc2c1C(=O)c1c(O)c3c(c(O)c1C2=O)C[C@@](O)(C(=O)CO)C[C@@H]3O[C@H]1C[C@H](N)[C@@H](O)[C@H](C)O1 [epirubicin HCl, reference compound] |  |  |  |  |  |  | increase in drug sensitivity [2]: 1.5 fold; increase in drug resistance in HT29 RAMS11 overexpressing cells [1]: at least a two-fold increase in drug resistance |
| O=c1[nH]c(=O)n([C@H]2C[C@H](O)[C@@H](CO)O2)cc1F [floxuridine, reference compound] | 1.541 | 2.291 | 2.964 | 1.569 | 2.375 | 3.091 | increase in cellular viability compared with empty vector control cell line [1]: greatest resistance |
| Nc1ccn([C@@H]2O[C@H](CO)[C@@H](O)C2(F)F)c(=O)n1 [gemcitabine, reference compound] |  | 3.429 | 2.39 | 1.507 | 3.028 | 2.499 | increase in cellular viability compared with empty vector control cell line [1]: greatest resistance |
| CC(=O)[C@]1(O)Cc2c(O)c3c(c(O)c2[C@@H](O[C@H]2C[C@H](N)[C@H](O)[C@H](C)O2)C1)C(=O)c1ccccc1C3=O [idarubicin HCl, reference compound] |  |  |  |  |  |  | increase in drug resistance in HT29 RAMS11 overexpressing cells [1]: at least a two-fold increase in drug resistance |
| CCc1c2c(nc3ccc(OC(=O)N4CCC(N5CCCCC5)CC4)cc13)-c1cc3c(c(=O)n1C2)COC(=O)[C@]3(O)CC [irinotecan] |  |  |  |  |  |  | effect of cell viability [2]: did not see a significant effect; increase in drug sensitivity ([3]; SW620, RAMS11 siRNA1 relative to scrambled control): > 3.17 fold; increase in drug sensitivity ([3]; SW620, RAMS11 siRNA2 relative to scrambled control): > 11.8 fold; effect of cell viability [1]: did not see a significant effect |
| O=C1[O][Pt]2([NH][C@@H]3CCCC[C@H]3[NH]2)[O]C1=O [oxaliplatin, reference compound] | 0.9127 | 0.9881 | 1.33 | 0.9671 | 1.102 | 1.427 | effect of cell viability [2]: did not see a significant effect; effect of cellular viability ([3]; SW620 cells with silenced RAMS11): did not have a significant effect; effect of cell viability [1]: did not see a significant effect |
| CC[C@@]1(O)C(=O)OCc2c1cc1n(c2=O)Cc2cc3c(CN(C)C)c(O)ccc3nc2-1 [topotecan hydrochloride, reference compound] |  |  |  |  |  |  | increase in drug resistance in HT29 RAMS11 overexpressing cells [1]: at least a two-fold increase in drug resistance |
| Arsenic trioxide | 0.9683 | 0.9697 | 0.8821 | 1.015 |  | 1.115 |  |
| Bleomycin | 0.921 | 1.039 | 1.025 | 0.96 |  |  |  |
| CBX4 siRNA: custom silencer select siRNA targeting CBX4, SEQ ID NO: 35 and 36 (chain 1 UAUGGGUUCAUCCAGGUCUGA; chain 2 AGACCUGGAUGAACCCAUATT; chemistry not given here) |  |  |  |  |  |  | H3K4me3 at the TOP2α promoter (TOP2α promoter): decrease; decrease in CBX4 occupancy at the TOP2α promoter (TOP2α promoter): 78% |
| Dabrafenib mesylate | 0.7923 | 0.8383 | 0.912 | 0.7733 | 0.8008 | 0.913 |  |
